We go through six compounds from paper PMC5799184, “Gs- versus Golf-dependent functional selectivity mediated by the dopamine D1 receptor” (Nature Communications, 2018).

Assay [1] concerns the target T1, D1R-Rluc with β-arrestin-2-Venus (Homo sapiens, UniProt P21728).
T1 construct: gene DRD1; D1R with N-terminal signal peptide and Flag or Myc tag, fused to Renilla luciferase 8; GRK2 co-transfected; HEK-293T cells; with Beta-arrestin-2
The class given is cell-based. To be noted: agonist; GRK2 co-transfected; HEK-293T cells.

The target in assay [2] is T2, D3R, Go activation (Homo sapiens, UniProt P35462).
T2 construct: gene DRD3; N-terminal signal peptide and Flag or Myc tag; co-transfected GαoA91-Rluc, Gγ2-GFP10 and untagged Gβ2; HEK-293T cells
T2 sequence (P35462 whole entry): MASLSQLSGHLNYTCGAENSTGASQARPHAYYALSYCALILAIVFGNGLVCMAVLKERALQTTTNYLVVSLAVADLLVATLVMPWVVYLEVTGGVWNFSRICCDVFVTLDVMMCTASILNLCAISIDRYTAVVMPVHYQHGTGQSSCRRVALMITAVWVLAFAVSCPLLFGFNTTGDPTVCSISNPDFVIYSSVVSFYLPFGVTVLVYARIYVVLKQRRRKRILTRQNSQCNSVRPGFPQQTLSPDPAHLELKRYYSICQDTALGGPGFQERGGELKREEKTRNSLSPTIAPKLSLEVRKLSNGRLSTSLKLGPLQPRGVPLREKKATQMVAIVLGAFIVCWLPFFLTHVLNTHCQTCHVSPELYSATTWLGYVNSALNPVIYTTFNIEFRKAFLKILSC
T2 sequence (P09471 2-354 partner): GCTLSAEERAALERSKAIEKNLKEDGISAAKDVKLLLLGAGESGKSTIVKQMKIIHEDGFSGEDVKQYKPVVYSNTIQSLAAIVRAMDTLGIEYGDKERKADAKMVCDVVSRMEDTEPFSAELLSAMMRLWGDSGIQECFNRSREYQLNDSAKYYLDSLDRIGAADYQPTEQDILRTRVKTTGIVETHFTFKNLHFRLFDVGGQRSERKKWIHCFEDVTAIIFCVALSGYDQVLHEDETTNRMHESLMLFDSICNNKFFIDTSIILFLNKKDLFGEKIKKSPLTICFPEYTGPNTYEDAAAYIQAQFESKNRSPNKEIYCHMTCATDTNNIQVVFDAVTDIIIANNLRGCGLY
Put plainly: BRET Go activation (GαoA-Rluc / γ2-GFP10). The class given is cell-based. To be noted: partial agonist; HEK-293T cells. A general note: Bioluminescence resonance energy transfer reports proximity on the nanometre scale.

For assay [3], the target named is T3, D2R (D2SR), Go activation (Homo sapiens, UniProt P14416).
T3 construct: gene DRD2
T3 sequence (P14416 1-414 isoform P14416-2): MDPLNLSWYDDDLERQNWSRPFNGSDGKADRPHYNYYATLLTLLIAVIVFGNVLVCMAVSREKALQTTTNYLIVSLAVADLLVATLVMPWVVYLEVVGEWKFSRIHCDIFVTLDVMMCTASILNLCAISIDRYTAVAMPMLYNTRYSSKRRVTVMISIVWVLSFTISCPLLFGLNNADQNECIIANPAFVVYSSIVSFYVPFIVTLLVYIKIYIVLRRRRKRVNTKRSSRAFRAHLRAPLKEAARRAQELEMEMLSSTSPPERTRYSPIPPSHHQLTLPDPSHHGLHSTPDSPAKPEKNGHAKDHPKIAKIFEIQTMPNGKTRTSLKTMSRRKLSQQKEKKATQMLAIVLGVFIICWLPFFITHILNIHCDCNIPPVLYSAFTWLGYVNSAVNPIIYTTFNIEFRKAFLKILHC
T3 sequence (P09471 2-354 partner): as the sequence (P09471 2-354 partner) above
The conditions noted are these: partial agonist; HEK-293T cells.

The target in assay [4] is T4, D1R-Rluc with Golf-Venus (D1L_GolfV) (Homo sapiens, UniProt P21728).
T4 construct: gene DRD1; D1R with N-terminal signal peptide and Flag or Myc tag, fused to Renilla luciferase 8; Gαolf with inserted Venus; G protein chaperone Ric8B co-transfected, untagged Gβ2 and Gγ7 available; HEK-293T cells
T4 sequence (P21728 whole entry, the tested form may be a part): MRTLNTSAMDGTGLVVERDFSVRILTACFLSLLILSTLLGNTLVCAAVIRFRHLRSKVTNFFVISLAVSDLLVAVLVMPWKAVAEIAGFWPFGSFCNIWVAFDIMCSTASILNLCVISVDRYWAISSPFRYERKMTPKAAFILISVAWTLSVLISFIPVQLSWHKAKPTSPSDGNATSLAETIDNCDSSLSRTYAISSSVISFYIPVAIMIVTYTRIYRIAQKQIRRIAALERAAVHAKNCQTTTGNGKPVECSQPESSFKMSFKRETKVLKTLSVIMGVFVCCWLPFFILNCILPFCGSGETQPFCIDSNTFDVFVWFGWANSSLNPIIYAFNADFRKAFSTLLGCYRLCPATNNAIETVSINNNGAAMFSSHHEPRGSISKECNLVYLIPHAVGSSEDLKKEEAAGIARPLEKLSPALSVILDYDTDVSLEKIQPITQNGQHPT
T4 sequence (P38405 2-381 partner): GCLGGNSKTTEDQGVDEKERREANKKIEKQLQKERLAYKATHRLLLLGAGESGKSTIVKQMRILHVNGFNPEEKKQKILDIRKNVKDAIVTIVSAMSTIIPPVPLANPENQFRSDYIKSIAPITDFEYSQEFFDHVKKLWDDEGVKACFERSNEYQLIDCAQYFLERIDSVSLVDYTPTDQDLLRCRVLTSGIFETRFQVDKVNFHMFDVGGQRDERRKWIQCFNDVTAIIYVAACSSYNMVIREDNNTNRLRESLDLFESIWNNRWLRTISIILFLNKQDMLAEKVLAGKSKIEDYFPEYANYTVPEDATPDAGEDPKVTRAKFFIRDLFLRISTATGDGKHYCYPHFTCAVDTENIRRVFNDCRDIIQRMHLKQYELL
Put plainly: BRET receptor-Gα engagement, D1R-Rluc / Golf-Venus. It is filed as cell-based. The conditions noted are these: antagonist against […] SKF81297; HEK-293T cells.

T1 sequence (P21728 whole entry, the tested form may be a part): as the sequence (P21728 whole entry, the tested form may be a part) above
T1 sequence (P32121 whole entry partner, the tested form may be a part): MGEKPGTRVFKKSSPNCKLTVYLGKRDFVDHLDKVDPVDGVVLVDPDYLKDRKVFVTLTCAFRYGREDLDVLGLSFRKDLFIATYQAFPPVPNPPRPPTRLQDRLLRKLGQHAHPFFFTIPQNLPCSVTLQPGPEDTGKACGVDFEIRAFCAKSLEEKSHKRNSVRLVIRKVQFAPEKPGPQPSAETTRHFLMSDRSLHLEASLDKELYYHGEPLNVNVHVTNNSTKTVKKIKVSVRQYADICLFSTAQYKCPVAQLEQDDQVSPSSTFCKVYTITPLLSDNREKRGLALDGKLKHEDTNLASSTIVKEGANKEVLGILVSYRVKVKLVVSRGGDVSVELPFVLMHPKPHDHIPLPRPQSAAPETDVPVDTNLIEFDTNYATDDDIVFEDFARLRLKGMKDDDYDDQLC

On to `NC[C@@H]1O[C@H](C23CC4CC(CC(C4)C2)C3)Cc2c1ccc(O)c2O` [A77636], for which, in assay [1], the EC50 entry is “A77636 and SKF82958 maintained their high potencies and efficacies in the β-arrestin-2 recruitment assay”.

For `Oc1cc2c(cc1O)C1c3ccccc3CNC1CC2` (centres unmarked) [DHX], the EC50 entry is “less efficacious at D2R and D3R-mediated Go activation than at D1R-mediated Gs activation” in assay [2]; “less efficacious at D2R and D3R-mediated Go activation than at D1R-mediated Gs activation” in assay [3]; “DHX and NPA behaved similarly to Gs engagement in terms of efficacy and potency” in assay [1].

Consider `CCCN1CCc2cccc3c2[C@H]1Cc1ccc(O)c(O)c1-3` [NPA], for which the EC50 result in assay [1] is “DHX and NPA behaved similarly to Gs engagement in terms of efficacy and potency”.

For the compound `CN1CCc2cc(Cl)c(O)cc2[C@@H](c2ccccc2)C1` [SCH23390], the IC50 result in assay [4] was “Dose-response curves of BRET between D1R-Rluc and Golf-Venus (same color scheme)”.

`Oc1cc2c(cc1O)C(c1ccccc1)CNCC2` (centres unmarked) [SKF38393]: the EC50 result in assay [1] is “SKF81297 and SKF38393 showed reduced and minimal β-arrestin-2 recruitment, respectively”.

With `C=CCN1CCc2c(cc(O)c(O)c2Cl)C(c2ccccc2)C1` (centres unmarked) [SKF82958], the EC50 entry in assay [1] was “A77636 and SKF82958 maintained their high potencies and efficacies in the β-arrestin-2 recruitment assay”.
